# Measured values taken from BindingDB's records for doi:10.1007/s00044-013-0797-8 (n/a, 2013).
# “And” between values parts separate entries of the source, which are not always exact repeats. Equal values may be shown once.
# Target: T1, Tyrosine-protein phosphatase non-receptor type 1 (Homo sapiens, UniProt P18031)
# T1 sequence (P18031 whole entry): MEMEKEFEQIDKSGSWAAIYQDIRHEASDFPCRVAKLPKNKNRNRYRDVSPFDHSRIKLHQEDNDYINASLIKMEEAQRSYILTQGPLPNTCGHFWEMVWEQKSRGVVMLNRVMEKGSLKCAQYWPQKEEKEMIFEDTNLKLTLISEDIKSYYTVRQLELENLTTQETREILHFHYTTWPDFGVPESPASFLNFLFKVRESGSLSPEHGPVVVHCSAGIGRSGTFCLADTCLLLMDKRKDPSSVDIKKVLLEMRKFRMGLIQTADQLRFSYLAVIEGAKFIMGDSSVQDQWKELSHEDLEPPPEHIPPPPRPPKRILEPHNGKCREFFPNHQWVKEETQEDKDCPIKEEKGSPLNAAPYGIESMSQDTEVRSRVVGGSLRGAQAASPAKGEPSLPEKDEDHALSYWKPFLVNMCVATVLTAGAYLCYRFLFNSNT
# Experiment: Non-competitive reversible inhibition of human PTP1B
row,Compound,IC50
1,CC1(C)Cc2c(nn(-c3cccc(C(F)(F)F)c3)c(=N)c2C#N)CO1,2.8 µM
2,CC1(C)Cc2c(nn(-c3ccccc3C(F)(F)F)c(=N)c2C#N)CO1,3.9 µM
3,CC1(C)Cc2c(nn(-c3cccc(CO)c3)c(=N)c2C#N)CO1,2.4 µM
4,CCc1cccc(-n2nc3c(c(C#N)c2=N)CC(C)(C)OC3)c1,8.2 µM
5,CCc1ccc(-n2nc3c(c(C#N)c2=N)CC(C)(C)OC3)cc1,2.8 µM
6,CC(=O)Nc1ccc(-n2nc3c(c(C#N)c2=N)CC(C)(C)OC3)cc1,6.1 µM
7,CC1(C)Cc2c(nn(-c3cccc(Oc4ccccc4)c3)c(=N)c2C#N)CO1,3.9 µM
8,COc1ccccc1-n1nc2c(c(C#N)c1=N)CC(C)(C)OC2,6.19 µM and 6.2 µM
9,CC1(C)Cc2c(nn(-c3ccc(CCO)cc3)c(=N)c2C#N)CO1,2.9 µM
10,CC1(C)Cc2c(nn(-c3ccccc3F)c(=N)c2C#N)CO1,2.4 µM
11,CCCCc1ccc(-n2nc3c(c(C#N)c2=N)CC(C)(C)OC3)cc1,7 µM
12,CC(C)c1cccc(-n2nc3c(c(C#N)c2=N)CC(C)(C)OC3)c1,8.2 µM
13,CC1(C)Cc2c(nn(-c3ccccc3N3CCOCC3)c(=N)c2C#N)CO1,2.9 µM
14,N#Cc1c2c(nn(-c3ccc(F)cc3)c1=N)CSCC2,2 µM
15,CC(C)c1ccccc1-n1nc2c(c(C#N)c1=N)CCSC2,2 µM
